# According to publication PMC10819888, “Benzimidazole-Based Derivatives as Apoptotic Antiproliferative Agents: Design, Synthesis, Docking, and Mechanistic Studies” (Molecules, 2024):
# What was measured:
# Test in all cases: NCI-60 one-dose assay
# Format in all cases: cell-based
# NCI-H226 = conditions: Homo sapiens, NCI-H226 (Non-Small Cell Lung Cancer), read-out: Cell Inhibition Percent
# Protocol: (§1) The final compounds were submitted to the National Cancer Institute, Bethesda, USA, for screening in vitro for anti-cancer. […] compounds, 4a–j, 5, and 6, were selected according to the Development Therapeutic Program (DTP) protocol. The selected compounds were evaluated for their in vitro cytotoxic activity against a panel of sixty cancer cell lines (NCI-60 cell line panel) derived from six cell lines panel of leukemia, nine cell lines of lung cancer, six cell lines of CNS cancer, seven cell lines of colon cancer, eight cell lines of melanoma, six cell lines of ovarian cancer, eight cell lines of renal cancer, two cell lines of prostate cancer, and eight cell lines of breast cancer, representing the full nine human systems as leukemia, melanoma, and cancers of the lung, colon, brain, breast, ovary, kidney, and prostate.
# (§2) The selected compounds 4a–j, 5, and 6 were tested at a single concentration of 10 µM. The screening results for the selected compounds are illustrated in Table 1.
# (§3) The NCI anti-cancer screening methodology has been described in detail elsewhere (http://www.dtp.nci.nih.gov, accessed on 20 February 2021). Following the Drug Evaluation Branch protocol, National Cancer Institute, Bethesda, USA, a primary anti-cancer assay was performed on approximately 60 human tumor cell line panels derived from nine neoplastic diseases.
# HL-60(TB) = conditions: Homo sapiens, HL-60(TB) (Leukemia), read-out: Cell Inhibition Percent
# Protocol: as §1, §2, §3
# MDA-MB 231 = conditions: Homo sapiens, MDA-MB 231 (Breast Cancer), read-out: Cell Inhibition Percent
# Protocol: as §1, §2, §3
# HOP-92 = conditions: Homo sapiens, HOP-92 (Non-Small Cell Lung Cancer), read-out: Cell Inhibition Percent
# Protocol: as §1, §2, §3
# LOX IMVI = conditions: Homo sapiens, LOX IMVI (Melanoma), read-out: Cell Inhibition Percent
# Protocol: as §1, §2, §3
# A498 = conditions: Homo sapiens, A498 (Renal Cancer), read-out: Cell Inhibition Percent
# Protocol: as §1, §2, §3
# UACC-257 = conditions: Homo sapiens, UACC-257 (Melanoma), read-out: Cell Inhibition Percent
# Protocol: as §1, §2, §3
# UO-31 = conditions: Homo sapiens, UO-31 (Renal Cancer), read-out: Cell Inhibition Percent
# Protocol: as §1, §2, §3
# KM12 = conditions: Homo sapiens, KM12 (Colon Cancer), read-out: Cell Inhibition Percent
# Protocol: as §1, §2, §3
# SNB-75 = conditions: Homo sapiens, SNB-75 (CNS cancer), read-out: Cell Inhibition Percent
# Protocol: as §1, §2, §3
# NCI-H322M = conditions: Homo sapiens, NCI-H322M (Non-Small Cell Lung Cancer), read-out: Cell Inhibition Percent
# Protocol: as §1, §2, §3
# MOLT-4 = conditions: Homo sapiens, MOLT-4 (Leukemia), read-out: Cell Inhibition Percent
# Protocol: as §1, §2, §3
# MDA-MB-435 = conditions: Homo sapiens, MDA-MB-435 (Melanoma), read-out: Cell Inhibition Percent
# Protocol: as §1, §2, §3
# MCF7 = conditions: Homo sapiens, MCF7 (Breast Cancer), read-out: Cell Inhibition Percent
# Protocol: as §1, §2, §3
# IGROV1 = conditions: Homo sapiens, IGROV-1, IGROV1 (ovarian cancer), read-out: Cell Inhibition Percent
# Protocol: as §1, §2, §3
# EKVX = conditions: Homo sapiens, EKVX (Non-Small Cell Lung Cancer), read-out: Cell Inhibition Percent
# Protocol: as §1, §2, §3
# SK-MEL-5 = conditions: Homo sapiens, SK-MEL-5 (Melanoma), read-out: Cell Inhibition Percent
# Protocol: as §1, §2, §3
# 786-0 = conditions: Homo sapiens, 786-0 (Renal Cancer), read-out: Cell Inhibition Percent
# Protocol: as §1, §2, §3
# NCI-H23 = conditions: Homo sapiens, NCI-H23 (Non-Small Cell Lung Cancer), read-out: Cell Inhibition Percent
# Protocol: as §1, §2, §3
# ACHN = conditions: Homo sapiens, ACHN (Renal Cancer), read-out: Cell Inhibition Percent
# Protocol: as §1, §2, §3
# U251 = conditions: Homo sapiens, U-251, U251 (CNS cancer), read-out: Cell Inhibition Percent
# Protocol: as §1, §2, §3
# HCT-15 = conditions: Homo sapiens, HCT-15 (Colon Cancer), read-out: Cell Inhibition Percent
# Protocol: as §1, §2, §3
# MDA-MB-468 = conditions: Homo sapiens, MDA-MB-468 (Breast Cancer), read-out: Cell Inhibition Percent
# Protocol: as §1, §2, §3
# SF-539 = conditions: Homo sapiens, SF-539 (CNS cancer), read-out: Cell Inhibition Percent
# Protocol: as §1, §2, §3
# UACC-62 = conditions: Homo sapiens, UACC-62 (Melanoma), read-out: Cell Inhibition Percent
# Protocol: as §1, §2, §3
# SF-268 = conditions: Homo sapiens, SF-268 (CNS cancer), read-out: Cell Inhibition Percent
# Protocol: as §1, §2, §3
# HCT-116 = conditions: Homo sapiens, HCT-116 (Colon Cancer), read-out: Cell Inhibition Percent
# Protocol: as §1, §2, §3
# HOP-62 = conditions: Homo sapiens, HOP-62 (Non-Small Cell Lung Cancer), read-out: Cell Inhibition Percent
# Protocol: as §1, §2, §3
# OVCAR-5 = conditions: Homo sapiens, OVCAR-5 (ovarian cancer), read-out: Cell Inhibition Percent
# Protocol: as §1, §2, §3
# PC-3 = conditions: Homo sapiens, PC-3 (Prostate Cancer), read-out: Cell Inhibition Percent
# Protocol: as §1, §2, §3
# OVCAR-8 = conditions: Homo sapiens, OVCAR-8 (ovarian cancer), read-out: Cell Inhibition Percent
# Protocol: as §1, §2, §3
SMILES,inhibition at 10 µM (NCI-H226) [%],inhibition at 10 µM (HL-60(TB)) [%],inhibition at 10 µM (MDA-MB 231) [%],inhibition at 10 µM (HOP-92) [%],inhibition at 10 µM (LOX IMVI) [%],inhibition at 10 µM (A498) [%],inhibition at 10 µM (UACC-257) [%],inhibition at 10 µM (UO-31) [%],inhibition at 10 µM (KM12) [%],inhibition at 10 µM (SNB-75) [%],inhibition at 10 µM (NCI-H322M) [%],inhibition at 10 µM (MOLT-4) [%],inhibition at 10 µM (MDA-MB-435) [%],inhibition at 10 µM (MCF7) [%],inhibition at 10 µM (IGROV1) [%],inhibition at 10 µM (EKVX) [%],inhibition at 10 µM (SK-MEL-5) [%],inhibition at 10 µM (786-0) [%],inhibition at 10 µM (NCI-H23) [%],inhibition at 10 µM (ACHN) [%],also measured
"O=C(NN=Cc1ccc(Cl)cc1)c1ccc2[nH]c(-c3ccc(Cl)cc3)nc2c1 [Compound 4e, N′-(4-Chlorobenzylidene)-2-(4-chlorophenyl)-1H-benzimidazole-5-carbohydrazide]",0.67,94.2,90.5,71.9,156,43.9,68.3,78.4,129,1.6,72.3,95.5,61.2,120,127,91.8,63.8,142,100,120,inhibition at 10 µM (U251): 115%; inhibition at 10 µM (HCT-15): 95.3%; inhibition at 10 µM (MDA-MB-468): 144%; inhibition at 10 µM (SF-539): 62.9%; inhibition at 10 µM (UACC-62): 83.2%; inhibition at 10 µM (SF-268): 62%; inhibition at 10 µM (HCT-116): 102%; inhibition at 10 µM (HOP-62): 92%; inhibition at 10 µM (OVCAR-5): 76.3%; inhibition at 10 µM (PC-3): 125%; inhibition at 10 µM (OVCAR-8): 85.8%
"CN(C)c1ccc(C=NNC(=O)c2ccc3[nH]c(-c4ccc(Cl)cc4)nc3c2)cc1 [Compound 4b, N′-(4-(Dimethylamino)benzylidene)-2-(4-chlorophenyl)-1H-benzimidazole-5-carbohydrazide]",4.67,0,15.6,0,3.7,12.9,0,13.3,2.41,0.61,0.24,3.18,0,23.8,15,2.85,5.02,0,1.51,1.36,inhibition at 10 µM (U251): 0%; inhibition at 10 µM (HCT-15): 0%; inhibition at 10 µM (MDA-MB-468): 0%; inhibition at 10 µM (SF-539): 5.22%; inhibition at 10 µM (UACC-62): 1.06%; inhibition at 10 µM (SF-268): 0.73%; inhibition at 10 µM (HCT-116): 4.7%; inhibition at 10 µM (HOP-62): 2.51%; inhibition at 10 µM (OVCAR-5): 0%; inhibition at 10 µM (PC-3): 4.81%; inhibition at 10 µM (OVCAR-8): 5.81%
"COc1ccc(C=NNC(=O)c2ccc3[nH]c(-c4ccc(Cl)cc4)nc3c2)cc1 [Compound 4g, N′-(4-Methoxybenzylidene)-2-(4-chlorophenyl)-1H-benzimidazole-5-carbohydrazide]",26.2,3.67,60.2,64,99.1,33.4,45.6,18.1,82.7,8.15,44.1,31.8,31.5,83.3,85.4,70.6,66.3,96.8,58.5,78.1,inhibition at 10 µM (U251): 92%; inhibition at 10 µM (HCT-15): 42.5%; inhibition at 10 µM (MDA-MB-468): 75.8%; inhibition at 10 µM (SF-539): 57.4%; inhibition at 10 µM (UACC-62): 69.1%; inhibition at 10 µM (SF-268): 80.1%; inhibition at 10 µM (HCT-116): 81%; inhibition at 10 µM (HOP-62): 69.7%; inhibition at 10 µM (OVCAR-5): 22.7%; inhibition at 10 µM (PC-3): 104%; inhibition at 10 µM (OVCAR-8): 68.7%
